Assay results published in US20090030086A1, “ANTIMICROBIAL AGENTS” (priority 2005, published 2009).
Values after ≈ are worked out from the molar mass of the structure shown. Read-outs that look alike come from different tables or passages of the source.

Legend:
[1] = system: S. aureus ATCC 29213; experiment: MBC assay; assay type: cell-based, Staphylococcus aureus
Description: (§1) The staphylococci and enterococci were cultured and maintained on Mueller-Hinton Medium (agar and broth) at pH 7.2; they were incubated aerobically at 37° C. for 24 hours.
(§2) This assay, normally carried out after an MIC assay, determines the minimum concentration of a compound that is lethal to the micro-organism being tested.
(§3) These samples were then individually sub-cultured on non-selective agar medium, under the incubation conditions described above. Following incubation they were examined visually for bacterial growth.
(§4) The following experiments all used S. aureus ATCC 29213 as the test organism. MIC, MBC and DDA assays, as described above, were carried out using a range of different benzoquinones and hydroquinones. Supplemented DDA assays, in the presence of salt, lipid and blood, were also conducted.

[2] = system: S. aureus ATCC 29213; experiment: Supplemented disc diffusion assay; assay type: cell-based, Staphylococcus aureus; details: for zone of inhibition at 200 µg/disc: Staphylococcus aureus, ATCC29213, 24 h
Description: as §1
(§5) A sterile paper disc was impregnated with a sample of the test compound and a minimum of 30 minutes allowed for the solvents to evaporate as far as possible. The disc was then placed on an agar plate onto which the test micro-organism had been inoculated. The plate was then incubated under the conditions described above, following which it was examined visually for signs of bacterial growth. […] The diameter of this zone of “inhibition” was measured using a ProtoCOL™ automated zone sizer (Synbiosis, Cambridge, UK).
(§6) Performance under these conditions can provide a more reliable indication of activity on topical application. For assays conducted using S. aureus strains, the supplements were defibrinated horse blood (5% v/v), lipid (Tween™ 80 at 1% v/v) and sodium chloride (100 mM). For those using Propionibacterium spp. strains, the supplements were lipid (Tween™ 80 at 1% v/v) and sodium chloride (100 mM).
as §4
(§7) For most DDA assays, 200 μg of each compound was loaded onto each disc.

[3] = system: P. acnes NCTC 737; experiment: Disc diffusion assay (DDA); assay type: cell-based, Propionibacterium acnes; details: for zone of inhibition at 200 µg/disc: Cutibacterium acnes
Description: (§8) The Propionibacterium spp organisms were cultured and maintained on Wilkins-Chalgren Anaerobe Medium (agar and broth) at pH 6.0; cultures were incubated anaerobically at 37° C. for 72 hours.
as §5
(§9) The area of the zone of inhibition was calculated from the measured zone diameter (D) using the formula π(D/2)^2.
as §7

[4] = system: P. acnes NCTC 737; experiment: MIC assay; assay type: cell-based, Propionibacterium acnes
Description: 2. Propionibacterium spp.—the principal propionibacterial strain used in these studies was Propionibacterium acnes NCTC 737.
as §8
(§10) This is a standard international method for quantitatively assessing the antimicrobial activity of a compound in a liquid medium. The method used a 96-well microtitre plate, capable of holding about 200 μl of liquid per well. […] The culture media were as described above for the relevant test organisms.
(§11) The wells were inoculated with a liquid suspension of freshly grown micro-organism and incubated under the conditions described above. After incubation, the microtitre plate was examined visually (with the aid of a light box) for cloudiness in each well, which would indicate microbial growth. The MIC value was recorded as the lowest concentration of test compound required to inhibit microbial growth, i.e., the lowest concentration for which the liquid in the well remained clear.
(§12) The assays were conducted in duplicate and included both negative (culture medium only) and positive (culture medium, diluting solvent and inoculum) controls.
(§13) MIC, MBC and DDA assays, as described above, were carried out using a range of different benzoquinones and hydroquinones. Supplemented DDA assays, in the presence of salt and lipid, were also conducted.

[5] = system: S. aureus ATCC 29213; experiment: Disc diffusion assay (DDA); assay type: cell-based, Staphylococcus aureus; details: for zone of inhibition at 200 µg/disc: Staphylococcus aureus
Description: as §1, §5, §9, §7

[6] = system: P. acnes NCTC 737; experiment: MBC assay; assay type: cell-based, Propionibacterium acnes
Description: as §8, §2, §3, §13

[7] = system: S. aureus ATCC 29213; experiment: MIC assay; assay type: cell-based, Staphylococcus aureus
Description: 1. Staphylococcus aureus—the principal staphylococcal test micro-organism used in these studies was Staphylococcus aureus ATCC 29213. This strain is the one recommended for QC/QA purposes in Minimum Inhibitory Concentration (MIC) assays by the US Clinical and Laboratory Standards Institute (formerly the NCCLS), an FDA-recognised body.
as §1, §10, §11, §12, §4

[8] = system: P. acnes NCTC 737; experiment: Supplemented disc diffusion assay; assay type: cell-based, Propionibacterium acnes; details: for zone of inhibition at 200 µg/disc: Cutibacterium acnes, NCTC737, 72 h
Description: as §8, §5, §6, §13, §7

[9] = Staphylococcus aureus, ATCC29213, read-out: MBC
[10] = S. aureus ATCC 29213, Tween 80 at 1% v/v, 200 μg per disc (thymoquinone 50 μg, 2,6-dimethoxy-p-benzoquinone 100 μg), read-out: DDA + lipid
[11] = S. aureus ATCC 29213, defibrinated horse blood 5% v/v, 200 μg per disc (thymoquinone 50 μg, 2,6-dimethoxy-p-benzoquinone 100 μg), read-out: DDA + blood
[12] = S. aureus ATCC 29213, sodium chloride 100 mM, 200 μg per disc (thymoquinone 50 μg, 2,6-dimethoxy-p-benzoquinone 100 μg), read-out: DDA + salt
[13] = NCTC737, P. acnes NCTC 737, unsupplemented agar, 200 μg per disc (2,6-dimethoxy-p-benzoquinone 100 μg), read-out: DDA (diameter of zone of inhibition)
[14] = Cutibacterium acnes, NCTC737, P. acnes NCTC 737, Wilkins-Chalgren broth pH 6.0, anaerobic, 37° C., 72 hours, read-out: MIC
[15] = ATCC29213, S. aureus ATCC 29213, unsupplemented agar, 200 μg per disc (thymoquinone 50 μg, 2,6-dimethoxy-p-benzoquinone 100 μg), read-out: DDA (diameter of zone of inhibition)
[16] = Cutibacterium acnes, NCTC737, P. acnes NCTC 737, read-out: MBC
[17] = Staphylococcus aureus, ATCC29213, S. aureus ATCC 29213, Mueller-Hinton broth pH 7.2, aerobic, 37° C., 24 hours, read-out: MIC
[18] = P. acnes NCTC 737, Tween 80 at 1% v/v, 200 μg per disc (2,6-dimethoxy-p-benzoquinone 100 μg), read-out: DDA + lipid
[19] = P. acnes NCTC 737, sodium chloride 100 mM, 200 μg per disc (2,6-dimethoxy-p-benzoquinone 100 μg), read-out: DDA + salt

| Compound | MIC/MBC ratio [1] | MIC/MBC ratio ([6]; P. acnes NCTC 737) | MIC [4, 14] | MIC [7, 17] | MBC [1, 9] | zone of inhibition at 200 µg/disc [2, 10] | zone of inhibition at 200 µg/disc [2, 11] | zone of inhibition at 200 µg/disc [2, 12] | zone of inhibition at 200 µg/disc [3, 13] | zone of inhibition at 200 µg/disc [5, 15] | MBC [6, 16] | zone of inhibition at 200 µg/disc [8, 18] | zone of inhibition at 200 µg/disc [8, 19] | other results |
| --- | --- | --- | --- | --- | --- | --- | --- | --- | --- | --- | --- | --- | --- | --- |
| Cc1cc(O)c(C)c(O)c1 [2,5-dimethylresorcinol] | <0.06 | 0.125 |  |  |  |  |  |  |  |  |  |  |  | MBC ([1]; Staphylococcus aureus, ATCC29213): > 250 µg/mL; zone of inhibition at 200 µg/disc ([2]; read-out: DDA + blood): 0 mm; zone of inhibition at 200 µg/disc ([2]; read-out: DDA + lipid): 13.8 mm; zone of inhibition at 200 µg/disc ([2]; read-out: DDA + salt): 16.9 mm; zone of inhibition at 200 µg/disc ([3]; NCTC737, read-out: DDA (diameter of zone of inhibition)): 0 mm; MIC ([4]; Cutibacterium acnes, NCTC737, 72 h, pH 6): 3.9 µg/mL (≈ 28.2 µM); zone of inhibition at 200 µg/disc ([5]; ATCC29213, read-out: DDA (diameter of zone of inhibition)): 16.7 mm; MBC ([6]; Cutibacterium acnes, NCTC737): 31.2 µg/mL (≈ 226 µM); MIC ([7]; Staphylococcus aureus, ATCC29213, 24 h, pH 7.2): 15.6 µg/mL (≈ 113 µM); zone of inhibition at 200 µg/disc ([8]; read-out: DDA + lipid): 0 mm; zone of inhibition at 200 µg/disc ([8]; read-out: DDA + salt): 0 mm |
| CC(C)(C)c1cc(O)c(O)c(C(C)(C)C)c1 [3,5-di-t-butylcatechol] | 1 | 0.5 | 7.8 µg/mL (≈ 35.1 µM) | 7.8 µg/mL (≈ 35.1 µM) | 7.8 µg/mL (≈ 35.1 µM) | 10.9 mm | 11.9 mm | 19.7 mm | 35.9 mm | 18.8 mm | 15.6 µg/mL (≈ 70.2 µM) | 0 mm | 37.3 mm |  |
| O=[N+]([O-])c1c(O)cccc1O [2-nitroresorcinol] | <0.5 | <0.5 | 125 µg/mL (≈ 806 µM) | 125 µg/mL (≈ 806 µM) | > 250 µg/mL | 0 mm | 0 mm | 12.8 mm | 0 mm | 10.5 mm | > 250 µg/mL | 0 mm | 12.7 mm |  |

Further lines, with some results ahead:

| MIC/MBC ratio [1] | MIC/MBC ratio ([6]; P. acnes NCTC 737) | MIC [4, 14] | MIC [7, 17] | Compound | MBC [1, 9] | zone of inhibition at 200 µg/disc [2, 10] | zone of inhibition at 200 µg/disc [2, 11] | zone of inhibition at 200 µg/disc [2, 12] | zone of inhibition at 200 µg/disc [3, 13] | zone of inhibition at 200 µg/disc [5, 15] | MBC [6, 16] | zone of inhibition at 200 µg/disc [8, 18] | zone of inhibition at 200 µg/disc [8, 19] | other results |
| --- | --- | --- | --- | --- | --- | --- | --- | --- | --- | --- | --- | --- | --- | --- |
| 1 | 0.5 |  |  | Oc1c(F)c(F)c(O)c(F)c1F [tetrafluoro-p-hydroquinone] |  |  |  |  |  |  |  |  |  | MBC [1]: 125 µg/mL (≈ 687 µM); DDA + lipid ([2]; S. aureus ATCC 29213, Tween 80 at 1% v/v, 200 μg per disc (thymoquinone 50 μg, 2,6-dimethoxy-p-benzoquinone 100 μg)): 9.38 mm; DDA + blood ([2]; S. aureus ATCC 29213, defibrinated horse blood 5% v/v, 200 μg per disc (thymoquinone 50 μg, 2,6-dimethoxy-p-benzoquinone 100 μg)): 0.0 mm; DDA + salt ([2]; S. aureus ATCC 29213, sodium chloride 100 mM, 200 μg per disc (thymoquinone 50 μg, 2,6-dimethoxy-p-benzoquinone 100 μg)): 11.25 mm; DDA (diameter of zone of inhibition) ([3]; P. acnes NCTC 737, unsupplemented agar, 200 μg per disc (2,6-dimethoxy-p-benzoquinone 100 μg)): 33.86 mm; MIC ([4]; P. acnes NCTC 737, Wilkins-Chalgren broth pH 6.0, anaerobic, 37° C., 72 hours): 62.5 µg/mL (≈ 343 µM); DDA (diameter of zone of inhibition) ([5]; S. aureus ATCC 29213, unsupplemented agar, 200 μg per disc (thymoquinone 50 μg, 2,6-dimethoxy-p-benzoquinone 100 μg)): 10.83 mm; MBC ([6]; P. acnes NCTC 737): 125 µg/mL (≈ 687 µM); MIC ([7]; S. aureus ATCC 29213, Mueller-Hinton broth pH 7.2, aerobic, 37° C., 24 hours): 125 µg/mL (≈ 687 µM); DDA + lipid ([8]; P. acnes NCTC 737, Tween 80 at 1% v/v, 200 μg per disc (2,6-dimethoxy-p-benzoquinone 100 μg)): 0.0 mm; DDA + salt ([8]; P. acnes NCTC 737, sodium chloride 100 mM, 200 μg per disc (2,6-dimethoxy-p-benzoquinone 100 μg)): 36.35 mm |
| 0.5 | 1 | 31.2 µg/mL (≈ 188 µM) | 7.8 µg/mL (≈ 46.9 µM) | Cc1cc(O)c(C(C)C)cc1O [thymohydroquinone] | 15.6 µg/mL (≈ 93.9 µM) | 41.7 mm | 10.3 mm | 57.6 mm | 9.82 mm | 57.6 mm | 31.2 µg/mL (≈ 188 µM) | 0 mm | 9.61 mm |  |
